What was measured:
[1] = test system: mice; assay: Maximal ElectroShock (MES)-induced tonic seizure test; type: in vivo; settings: Mus musculus; for ED50: read-out: Mice MES ED50 (mpk/peak time); for responders at 50 mg/kg: 4 h
Method: The “Maximal ElectroShock (MES)” test is a well-established pharmacological screening method for anticonvulsants against tonic-clonic seizures. The procedure employed in the MES test for anticonvulsants is as follows. The compounds to be tested were dissolved in 30% PEG400 and administered ip and po into animals. After the designated number of hours, maximal electroshock (50 mA, 60 Hz, 0.2 sec) was applied into animals via corneal electrodes using IITC Life Science model 11A Shocker. […] Median efficacy dose (ED50) levels were determined using three different dose levels with at least 8 mice in each group.

[2] = molecular target: T1, rat dopamine transporter (Rattus norvegicus, UniProt P23977); assay: Dopamine transport (DAT) assay, [3H]dopamine uptake in CHO D8 cells; type: cell-based
T1 construct: expressed in transfected cells
T1 sequence (P23977 whole entry): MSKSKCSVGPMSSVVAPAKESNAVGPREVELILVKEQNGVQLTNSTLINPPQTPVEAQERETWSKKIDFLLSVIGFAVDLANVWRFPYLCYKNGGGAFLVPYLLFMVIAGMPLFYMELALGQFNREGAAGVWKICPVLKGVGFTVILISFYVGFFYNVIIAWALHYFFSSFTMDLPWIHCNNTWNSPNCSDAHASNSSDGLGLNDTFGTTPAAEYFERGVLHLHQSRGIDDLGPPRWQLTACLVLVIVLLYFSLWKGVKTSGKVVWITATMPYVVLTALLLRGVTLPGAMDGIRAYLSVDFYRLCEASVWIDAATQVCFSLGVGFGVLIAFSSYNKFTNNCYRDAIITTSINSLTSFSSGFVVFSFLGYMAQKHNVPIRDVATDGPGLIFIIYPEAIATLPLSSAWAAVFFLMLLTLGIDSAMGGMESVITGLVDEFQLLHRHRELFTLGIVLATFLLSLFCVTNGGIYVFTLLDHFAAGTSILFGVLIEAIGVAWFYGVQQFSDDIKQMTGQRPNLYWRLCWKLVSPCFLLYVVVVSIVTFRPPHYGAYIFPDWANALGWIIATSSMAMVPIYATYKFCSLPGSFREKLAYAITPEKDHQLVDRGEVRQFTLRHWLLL
Method: The “Dopamine Transport (DAT)” assay for dopamine uptake inhibition was also carried out. In order to test dopamine uptake inhibition, compounds of the inventions were assayed as modified from Zhaoping Liu et. al., Neuropharmacology, 2001, 41, 464.
Cultured CHO cells were […] with recombinant plasmid, DAT-pCDNA3, which encodes rat dopamine transporter. Several subclones were selected and assayed for [3H] dopamine uptake. The clone with the highest uptake, designated D8, was chosen for Dopamine transport assay of compounds.
For the Dopamine transport assay, D8 cells were cultured in 48-well plate using RMPI1640 containing 10% FCS. D8 cells, grown to 60,000 cells per well, each wells were rinsed once with phosphate buffered saline (PBS) and pre-incubated in 100 μl Hank's balanced salt solution (HBSS) for 10 min at room temperature. The buffer was then changed to 50 μl HBSS containing the tested compounds and 350 μl HBSS containing reaction components ([3H] dopamine, ascorbic acid and pargyline). Final concentrations of [3H] dopamine, ascorbic acid and pargyline are 151 nM, 100 μM and 100 μM, respectively. The cells were incubated for 20 min at room temperature and the reaction was terminated by aspiration of the buffer and washed three times with 1 ml cold BS. The cells were then solubilized in 2N NaOH and an aliquot was measured by liquid scintillation counting to quantify the uptake of [3H] dopamine.

[3] = test system: mice; assay: Pentylenetetrazol (PTZ)-induced clonic seizure test; type: in vivo; settings: Mus musculus, sc, read-out: Mice PTZ ED50 (mpk/peak time)
Method: The “Pentylenetetrazol (PTZ)” test for anticonvulsant and antianxiety activity was also carried out.
The procedure employed in the PTZ test is as follows. The compounds to be tested were dissolved in 30% PEG400 and administered ip and po into animals. After the designated number of hours, each animal was injected subcutaneously with 100 mg/kg of PTZ (CD97 dose) and observed for up to 30 minutes for the presence or absence of clonic spasms over 5 seconds. Median efficacy dose (ED50) levels were determined using three different dose levels with 8 mice in each group.

[4] = test system: mice; assay: Light-Dark Box (LDB) test; type: in vivo; settings: treated 30 min prior to testing
Method: Light-Dark Box (LDB) test, one of the unconditioned conflict tests, was used to investigate anxiolytic activity for several drugs such as Diazepam, Buspirone, etc (Allikmets et al, 1996; Belzung and Griebel, 2001; Cutler and Aitken, 1991; Leyre et al, 2004). In the present study, anxiolytic effect of azole compounds containing carbamoyl group represented by general structural formula (IX) was investigated on the LDB test in mice.
The animals were treated with compound 30 min prior to testing. The light-dark box consisted of a plexiglas apparatus measuring 45 cm×27 cm×27 cm (L×W×H), and was partitioned into two compartments, one fully opaque (dark compartment made of black plexiglas: 18 cm of total length of apparatus), while the second was lit from the compartment ceiling by a 100 W bulb. A small opening (7×7 cm) in the partition wall allowed free passage between the light and dark compartments.
Animals were placed at the lit compartment first, and the latency for escape into dark was checked and tested in the LDB for 5 min after the first entering into dark box. The animal, which the latency was over 2 min, was excluded from the test. Total time spent in the light compartment was counted. Movement of animal was checked through the TV-CCD camera by an experienced observer blind to the conditions of the experiment. A mouse whose four paws were in the new box was considered as having changed box.

[5] = test system: mice; assay: Forced swimming test (FST); type: in vivo; settings: 30 min after dosing
Method: The “Forced swimming test (FST)” for antidepressant activity was also carried out. The procedure employed in the FST for antidepressant is as follows. The compounds to be tested were dissolved in 30% PEG400 and administered ip and po into animals. 30 min later, the immobility time during post 4 minutes of 6 minutes experiment time was measured.

[6] = test system: TBPS site of GABA-A receptor; assay: GABA-A receptor (TBPS site) binding assay, [35S]TBPS; settings: 100 μM; rat brain membranes, 2 nM [35S]TBPS
Method: Compounds of the inventions were tested for specific binding to TBPS (t-butyl bicyclophosphorothionate) site, an allosteric modulator site of GABA-A receptor as modified from G. Maksay and M. Simonyi, Eur. J. Pharmacol. 1985, 117(2), 275. and Gee, K. W. et al., J. Pharm. Exp. Ther. 1988, 246, 803.
This binding assay was performed using [35S] TBPS as radioligand in washed crude membrane homogenate from rat brains. Membrane preparations were carried out according to procedure described below. Sprague-Dawley (SD) rat weighting 230 g were killed by decapitation and their whole brains were rapidly removed and its cerebellums were excluded. The dissected brains were homogenized for 30 sec in 10 volumes (W/V) of ice-cold 0.32 M Sucrose and 50 mM Tris-citrate buffer pH 7.4 using glass homogenate. The homogenate was centrifuged at 2,000×g for 5 min at 4° C. And the supernatant re-centrifuged at 50,000×g for 20 min at 4° C. The supernatant was discarded and the resulting pellets were resuspended in 10 volumes (W/V) of ice-cold 50 mM Tris-citrate buffer pH 7.4. And then the suspended pellet was centrifuged at 50,000×g for 20 min at 4° C. The resulting pellets were suspended again in 32 volumes (W/V) of ice-cold 50 mM Tris-citrate buffer pH 7.4 with 0.05% Triton X-100 and then incubated in 37° C. for 60 min using a water bath. The incubated suspension was centrifuged at 50,000×g for 20 min at 4° C. Resuspending and centrifugation step of the remained pellets were repeated twice at the same manner and final pellets were resuspended in 10 volumes (W/V) of ice-cold 50 mM Tris-citrate buffer pH 7.4 to enable distribution of 2 ml aliquot in microcentrifuge tube, which were used immediately or kept at −80° C. for no more than 1 month before use.
For TBPS site binding assay, 50 μl of the tested compound were added to 100 μg membrane protein suspended in 0.15 ml of 50 mM Tris-citrate buffer with 200 mM NaCl pH 7.4 in presence of 2 nM of [35S] TBPS. The incubation of mixtures were carried out for 1.5 hours at 25° C. and then rapidly filtered over Whatman GF/C glass fiber filters, followed by twice 4.5 ml rinses with ice-cold incubation buffer. The filters were placed in counting vials and 4 ml scintillation solution. The vials were counted in a Beckman scintillation counter. Non-specific binding was determined in parallel incubations with 100 μM picrotoxin.
IC50 values for TBPS site binding assay was calculated using Graphpad PRISM v.3.00.

[7] = test system: mice and rats; settings: cited from earlier work
[8] = test system: clonic seizures; settings: in vivo; cited from earlier work
[9] = test system: mice; settings: probably by inhibition of cytochrome P-450; cited from earlier work
[10] = read-out: Mice MES Protection % (mpk/peak time)

## CNC(=O)O[C@@H](Cn1ncnn1)c1ccccc1Cl [Example 45, Methyl-carbamic acid (R)-1-(2-chloro-phenyl)-2-tetrazol-2-yl-ethyl ester]
[1]; 0.5 h
  ED50: 4.88 mg/kg
[2]
  inhibition at 10 µM: -58.1%
[3]; 0.5 h
  ED50: 5.81 mg/kg
[4]
  Mice LDB % Duration in the light box: N.S

## NC(=O)O[C@H](Cn1nccn1)c1ccc(Cl)c(Cl)c1 [Example 87, Carbamic acid (S)-1-(3,4-dichloro-phenyl)-2-[1,2,3]triazol-2-yl-ethyl ester]
[5]; dose not given
  Mice FST Reduction of immobility %: 92.5%
[1]; 0.5 h
  ED50: 14.8 mg/kg
[2]
  inhibition at 10 µM: 93.8%
[4]
  Mice LDB % Duration in the light box: N.S
[6]
  TBPS Inhibition % (At 100 μM): 50.1%

## O=C(Cn1ccnc1)c1ccc2ccccc2c1 [Nafimidone, 2-(1H-imidazole-1-yl)-1-(2-naphthalenyl)ethanone]
[7]
  protection against maximal electroshock- or pentylenetetrazole-induced tonic seizures: protect
[8]
  antagonism of clonic seizures induced by pentylenetetrazole, strychnine, bicuculline, or picrotoxin: do not antagonize
[9]
  hexobarbital-induced sleeping time: potentiated

## NC(=O)O[C@@H](Cn1ncnn1)c1ccccc1Cl [Example 20, Carbamic acid (R)-1-(2-chloro-phenyl)-2-tetrazol-2-yl-ethyl ester]
[5]; dose not given
  Mice FST Reduction of immobility %: −24.3%
[1]; 0.5 h
  ED50: 4.24 mg/kg
[2]
  inhibition at 10 µM: 7.1%
[3]; 0.5 h
  ED50: 3.76 mg/kg

## NC(=O)OC(Cn1nccn1)c1ccccc1Cl (stereo not drawn) [Example 1, Carbamic acid 1-(2-chloro-phenyl)-2-[1,2,3]triazol-2-yl-ethyl ester]
[5]
  Mice FST Reduction of immobility %: N.S
[1]; 0.5 h
  ED50: 10.7 mg/kg
[2]
  inhibition at 10 µM: 47.3%
[3]; 0.5 h
  ED50: 24.5 mg/kg
[6]
  TBPS Inhibition % (At 100 μM): 18.3%

## NC(=O)OC(Cn1ncnn1)c1ccc(Cl)c(Cl)c1 (stereo not drawn) [Example 26, Carbamic acid 1-(3,4-dichloro-phenyl)-2-tetrazol-2-yl-ethyl ester]
[5]; dose not given
  Mice FST Reduction of immobility %: 97.5%
[1]; [10]
  responders at 50 mg/kg: 100%
[2]
  inhibition at 10 µM: 88.2%

## NC(=O)OC(Cn1nccn1)c1ccccc1 (stereo not drawn) [Example 7, Carbamic acid 1-phenyl-2-[1,2,3]triazol-2-yl-ethyl ester]
[1]; 0.5 h
  ED50: 26.2 mg/kg
[2]
  inhibition at 10 µM: -21.1%

## OC(Cn1ccnc1)c1ccc(CCc2ccccc2)cc1 (stereo not drawn) [denzimol, α-(4-(2-phenylethyl)phenyl)-1H-imidazole-1-ethanol]
[7]
  protection against maximal electroshock- or pentylenetetrazole-induced tonic seizures: protect
[8]
  antagonism of clonic seizures induced by pentylenetetrazole, strychnine, bicuculline, or picrotoxin: do not antagonize
[9]
  hexobarbital-induced sleeping time: potentiated

## NC(=O)OC(Cn1ncnn1)c1ccc(Cl)cc1Cl (stereo not drawn) [Example 30, Carbamic acid 1-(2,4-dichloro-phenyl)-2-tetrazol-2-yl-ethyl ester]
[5]
  Mice FST Reduction of immobility %: N.S
[1]; 1 h
  ED50: 14.9 mg/kg
[2]
  inhibition at 10 µM: 15.1%
[3]; 1 h
  ED50: 12.2 mg/kg
[4]; dose not given
  Mice LDB % Duration in the light box: 143.6% ^

## NC(=O)OC(Cn1nccn1)c1ccc(Cl)cc1Cl (stereo not drawn) [Example 29, Carbamic acid 1-(2,4-dichloro-phenyl)-2-[1,2,3]triazol-2-yl-ethyl ester]
[5]
  Mice FST Reduction of immobility %: N.S
[1]; 1 h
  ED50: 14.4 mg/kg
[2]
  inhibition at 10 µM: -27.5%
[3]; 1 h
  ED50: 16.8 mg/kg
[4]; dose not given
  Mice LDB % Duration in the light box: 288.5% ^

## NC(=O)OC(Cn1nccn1)c1ccc(Cl)c(Cl)c1 (stereo not drawn) [Example 25, Carbamic acid 1-(3,4-dichloro-phenyl)-2-[1,2,3]triazol-2-yl-ethyl ester]
[5]; dose not given
  Mice FST Reduction of immobility %: 94.1%
[1]; [10]
  responders at 50 mg/kg: 100%
[2]
  inhibition at 10 µM: 70.7%

## NC(=O)O[C@H](Cn1ncnn1)c1ccc(Cl)c(Cl)c1 [Example 96, Carbamic acid (S)-1-(3,4-dichloro-phenyl)-2-tetrazol-2-yl-ethyl ester]
[5]; dose not given
  Mice FST Reduction of immobility %: 95.8%
[1]; 0.5 h
  ED50: 10.4 mg/kg
[2]
  inhibition at 10 µM: 98.4%

## NC(=O)OC(Cn1ncnn1)c1ccccc1 (stereo not drawn) [Example 4, Carbamic acid 1-phenyl-2-tetrazol-2-yl-ethyl ester]
[5]; dose not given
  Mice FST Reduction of immobility %: 40.3%
[1]; 0.5 h, read-out: Mice MES Protection % (mpk/peak time)
  responders at 30 mg/kg: 66.7%
[2]
  inhibition at 10 µM: 41.5%

## NC(=O)O[C@H](Cn1ncnn1)c1ccccc1Cl [Example 21, Carbamic acid (S)-1-(2-chloro-phenyl)-2-tetrazol-2-yl-ethyl ester]
[1]; 0.5 h
  ED50: 14.2 mg/kg
[2]
  inhibition at 10 µM: 20.9%
[3]; 0.5 h
  ED50: 28.8 mg/kg

Reference: US7598279B2, “Neurotherapeutic azole compounds” (SK Holdings Co., Ltd., priority 2005, dated 2009)
